Read-outs that look alike come from different tables or passages of the source.
System: HeLa cells
Experiment: Lipofection of HeLa cells with pCMV-luc / Rotifect Plus; transfection efficiency by luciferase reporter assay
Assay type: cell-based
Conditions: for Results in RLU (averages of three tests): inhibitors added 2 hours before and during transfection, luciferase assay after 24 hours; for Results in RLU/μg protein (averages): carried out analogously with Example 1
Procedure: The transfection efficiency was measured indirectly using a luciferase enzyme, which was coded by the inserted nucleic acid. This is a reporter gene system. These are established systems for detecting the transfection efficiency. Thus, the greater the amount of luciferase which can be detected in a culture vessel after lysis of the transfected cells, the greater the transfection efficiency. The amount of luciferase is detected by way of an enzyme substrate reaction in which a light quantum is released. These light quanta can be measured by suitable measurement devices known as luminometers. Since the number of light quanta measured is dependent in particular on the time interval in which the measurement took place, this light quantum amount is also denoted as “relative light units”. For comparative studies, the measurement conditions must therefore be identical. […] In both examples, for the treatment using the IKKe/TBK1 inhibitor and an inhibitor for a nucleic-acid-detecting toll-like receptor a significant improvement can be observed, and also cannot be explained merely by simple addition of the individual rates of increase for TKKe/TBK1 inhibitor and an inhibitor for a nucleic-acid-detecting toll-like receptor. This is thus clearly a synergistic effect. The following was used as general material: • 1. HeLa cells; ATTC CCL-2 • 2. Rotifect Plus, Carl Roth; Cat. No.: CL21.2 • 3. 48-well plates; Cellstar; Greiner BioOne; Cat. No.: 677180 • 4. DMEM; high-glucose; Biowest, w/stable glutamine/sodium pyruvate, Cat. No.: L103-500 • 5. Serum FBS Gold; PAN Biotech; Batch No. P130914: Cat. No.: P40-37500 • 6. pCMV-luc, Plasmid Factory, Cat. No.: PF461 • 7. Luciferase Assay Kit, Promega • 8. Dimethyl sulphoxide (DMSO for molecular biology), Fluka; Cat. No.: 41639 • 9. […] No.: 204001 • 10. […] Fluka; Cat. No.: C6628 • 11. […] TCI: Cat. No.: Q0056 The first embodiment, shown in FIG. 1, relates to lipofection of HeLa cells with a conventional commercial transfection reagent (Rotifect Plus), which were treated with the inhibitor BX795 for IKKe and TBK1 and with chloroquine as an inhibitor for TLR9 before and during the transfection. The lipofection of the HeLa cells was carried out over a 3-day period: […] HeLa cells were seeded into a 48-well plate. A cell count of 1*10^5 cells per well was plated in 250 μl complete DMEM medium (10% FCS). This was followed by incubation in a CO2 incubator (10%) for 24 hours. […] This was followed by incubation in a CO2 incubator (10%) for 24 hours. The efficiency of the transfection was determined using a luciferase assay kit. The assay was carried out in accordance with the manufacturer's instructions. The second embodiment, shown in FIG. 2, relates to lipofection of HeLa cells, which were treated with the inhibitor BX795 for IKKe and TBK1 and with quinacrine as an inhibitor for TLR9 before and during the transfection. The lipofection of the HeLa was carried out analogously with Example 1.

[1] = Example 1, FIG. 1, HeLa cells, BX795 0.5 μM, chloroquine 10 μM
[2] = Example 1, HeLa cells, BX795 0.5 μM, chloroquine 10 μM
[3] = Example 2, FIG. 2, HeLa cells, BX795 0.5 μM, quinacrine 2.5 μM
[4] = Example 2, HeLa cells, BX795 0.5 μM, quinacrine 2.5 μM
[5] = Homo sapiens, HeLa, Example 2, FIG. 2, HeLa cells, BX795 0.5 μM, quinacrine 2.5 μM, read-out: transfection efficiency normalised to transfection without inhibitors (ST = 100%)

O=C(NCCCNc1nc(Nc2cccc(NC(=O)N3CCCC3)c2)ncc1I)c1cccs1 [BX795]
Results in RLU (averages of three tests) [1]: 50282 RLU | increase over standard transfection [2]: 256% | Results in RLU/μg protein (averages) [3]: 27260 RLU/μg protein | increase over standard transfection [4]: 285% | activity at 0.5 µM (Homo sapiens, HeLa, Example 1, FIG. 1, HeLa cells, BX795 0.5 μM, chloroquine 10 μM, read-out: transfection efficiency normalised to transfection without inhibitors (ST = 100%)): 356% | activity at 0.5 µM [5]: 141%

CCN(CC)CCCC(C)Nc1ccnc2cc(Cl)ccc12 (stereo not drawn) [Chloroquine]
Results in RLU (averages of three tests) [1]: 46817 RLU | increase over standard transfection [2]: 19% | activity at 10 µM (Homo sapiens, HeLa, read-out: transfection efficiency normalised to transfection without inhibitors (ST = 100%)): 119%

CCN(CC)CCCC(C)Nc1c2ccc(Cl)cc2nc2ccc(OC)cc12 (stereo not drawn) [Quinacrine, quinacrine]
Results in RLU/μg protein (averages) [3]: 73924 RLU/μg protein | increase over standard transfection [4]: 41% | activity at 2.5 µM [5]: 385%
